Experimental data published in article PMC9079729, “Conservation of the conformational dynamics and ligand binding within M49 enzyme family” (RSC Advances, 2018).
Residues, ends and D or L forms follow the SMILES beside them.

Molecular target: T1, yDPP III (Saccharomyces cerevisiae, UniProt Q08225)
T1 construct: His6 (C); made in house; host or cells: E. coli
T1 sequence (Q08225 1-711): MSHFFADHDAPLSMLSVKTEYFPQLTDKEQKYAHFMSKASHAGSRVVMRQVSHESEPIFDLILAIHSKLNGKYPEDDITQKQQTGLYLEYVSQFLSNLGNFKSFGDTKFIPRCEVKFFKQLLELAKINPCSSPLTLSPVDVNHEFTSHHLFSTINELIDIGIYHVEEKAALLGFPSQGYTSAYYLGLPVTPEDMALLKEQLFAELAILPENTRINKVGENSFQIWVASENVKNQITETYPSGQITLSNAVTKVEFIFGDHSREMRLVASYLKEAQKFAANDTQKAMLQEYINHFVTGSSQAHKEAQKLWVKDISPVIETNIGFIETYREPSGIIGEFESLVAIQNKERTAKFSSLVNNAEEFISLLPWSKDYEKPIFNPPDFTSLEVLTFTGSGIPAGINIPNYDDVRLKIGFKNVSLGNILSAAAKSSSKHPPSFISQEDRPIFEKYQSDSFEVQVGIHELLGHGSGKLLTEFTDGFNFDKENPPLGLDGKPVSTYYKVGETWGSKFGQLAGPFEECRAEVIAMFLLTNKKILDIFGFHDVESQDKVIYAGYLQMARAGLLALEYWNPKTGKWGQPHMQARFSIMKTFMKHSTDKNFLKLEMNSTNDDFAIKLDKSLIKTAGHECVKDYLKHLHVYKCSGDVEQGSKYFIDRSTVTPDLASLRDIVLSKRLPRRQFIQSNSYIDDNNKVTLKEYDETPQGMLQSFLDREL
Assay: Differential HDX-MS, unliganded vs. tynorphin complex
Type: binding, yeast (Saccharomyces cerevisiae)
Conditions: yDPP III peptide p42 (407-422)
Method: In the first step of the HDX analysis, optimization of digestion conditions and establishing a list of peptic peptides for all DPP III orthologues was carried out. With non-deuterated sample, a 5 μL aliquot of protein stock (between 35–50 μM in 20 mM Tris, pH 7.4) was diluted 10 times by adding 45 μL of 20 mM Tris, pH 7.4 (H2O reaction buffer). Next, the sample was acidified by mixing with 10 μL of 2 M glycine buffer, pH 2.5 (H2O stop buffer). The sample was subjected to online pepsin digestion using a 2.1 mm × 30 mm immobilized pepsin resin column (Porozyme, ABI, Foster City, CA) with 200 μL min^−1 flow of 0.07% formic acid in water as a mobile phase. Digested peptides were passed directly to the 2.1 mm × 5 mm C18 trapping column (Acquity BEH C18 VanGuard precolumn, 1.7 μm resin, Waters, Milford, MA). […]
Separate hydrogen deuterium exchange experiments were carried out for six unliganded DPP III enzymes, human V412I mutant, and their tynorphin complexes. […] The reaction buffer was prepared using D2O (99.8% Armar Chemicals, Switzerland), in which the pH (uncorrected meter reading) was adjusted using DCl or NaOD (Sigma). […] Relative deuterium uptake values are calculated without correction for back exchange. […]

With `CC(C)[C@H](N)C(=O)N[C@H](C(=O)N[C@@H](Cc1ccc(O)cc1)C(=O)N1CCC[C@H]1C(=O)N[C@@H](Cc1c[nH]c2ccccc12)C(=O)O)C(C)C` [tynorphin] (H-VVYPW-OH) the “deuterium incorporation decrease, fast exchanging conformation” value was “less than 1%” and the “deuterium incorporation decrease, slow exchanging conformation” value was “more than 22%”.
